Measurements reported in ChEMBL document CHEMBL5233271, “Discovering the Mechanisms of Wikstroelide E as a Potential HIV-Latency-Reversing Agent by Transcriptome Profiling” (J Nat Prod, 2021).
The source made the active and inactive calls.

Columns and labels:
NH2 = assay: Activation of NFkappaB signalling pathway in human NH2 cells assessed as increase in IkappaBalpha phosphorylation at 40 nM by Western blot analysis; format: cell-based; conditions: filed as activator, time 5-120 min, TDE = time-dependent effect
J-Lat Tat-GFP Clone A2 [1] = assay: Upregulation of DGKA gene expression in human J-Lat Tat-GFP Clone A2 cells at 10 nM measured after 6 hrs by transcriptome analysis; format: functional, cell-based
J-Lat Tat-GFP Clone A2 [2] = assay: Upregulation of CLIC1 gene expression in human J-Lat Tat-GFP Clone A2 cells at 10 nM measured after 6 hrs by transcriptome analysis; format: functional, cell-based
[3] = tested on: Human immunodeficiency virus; assay: Reactivation of latent HIV in human NH2 cells at 10 nM by luciferase based analysis; format: functional, organism-based; conditions: time 6-36 hrs, TDE = time-dependent effect
J-Lat Tat-GFP Clone A2 [4] = assay: Downregulation of CHEK1 gene expression in human J-Lat Tat-GFP Clone A2 cells at 10 nM measured after 6 hrs by transcriptome analysis; format: functional, cell-based
[5] = tested on: Human immunodeficiency virus; assay: HIV-latency reversing activity in human J-Lat Tat-GFP Clone A2 cells at 10 nM measured after 24 hrs by fluorescence based analysis; format: functional, organism-based
J-Lat Tat-GFP Clone A2 [6] = assay: Downregulation of LRSAM1 gene expression in human J-Lat Tat-GFP Clone A2 cells at 10 nM measured after 6 hrs by transcriptome analysis; format: functional, cell-based
[7] = Cytotoxicity against human J-Lat 2D10 cells at 1 uM incubated for 72 hrs; format: toxicity, cell-based
J-Lat Tat-GFP Clone A2 [8] = assay: Upregulation of DDRGK1 gene expression in human J-Lat Tat-GFP Clone A2 cells at 10 nM measured after 6 hrs by transcriptome analysis; format: functional, cell-based
[9] = tested on: Human immunodeficiency virus; assay: Reactivation of latent HIV in human NH2 cells assessed as fold change measured after 24 hrs by luciferase based analysis relative to -prostratin; format: functional
J-Lat Tat-GFP Clone A2 [10] = assay: Downregulation of INTS10 gene expression in human J-Lat Tat-GFP Clone A2 cells at 10 nM measured after 6 hrs by transcriptome analysis; format: functional, cell-based
[11] = tested on: Human immunodeficiency virus; assay: Reactivation of latent HIV in human J-Lat Tat-GFP Clone A2 cells at 10 nM by fluorescence based analysis; format: functional, organism-based; conditions: time 6-36 hrs, TDE = time-dependent effect
[12] = tested on: Human immunodeficiency virus; assay: Reactivation of latent HIV in human J-Lat 2D10 cells at 10 nM by fluorescence based analysis; format: functional, organism-based; conditions: time 6-36 hrs, TDE = time-dependent effect
J-Lat Tat-GFP Clone A2 [13] = assay: Activation of NFkappaB signalling pathway in human J-Lat Tat-GFP Clone A2 cells assessed as increase in IkappaBalpha phosphorylation at 40 nM by Western blot analysis; format: cell-based; conditions: filed as activator, time 5-120 min, TDE = time-dependent effect
J-Lat Tat-GFP Clone A2 [14] = assay: Upregulation of CORO1A gene expression in human J-Lat Tat-GFP Clone A2 cells at 10 nM measured after 6 hrs by transcriptome analysis; format: functional, cell-based
[15] = tested on: Human immunodeficiency virus; assay: HIV-latency reversing activity in human NH2 cells at 10 nM measured after 24 hrs by luciferase based assay; format: functional, organism-based
J-Lat Tat-GFP Clone A2 [16] = assay: Downregulation of CCNB1 gene expression in human J-Lat Tat-GFP Clone A2 cells at 10 nM measured after 6 hrs by transcriptome analysis; format: functional, cell-based
J-Lat Tat-GFP Clone A2 [17] = assay: Activation of NFkappaB signalling pathway in human J-Lat Tat-GFP Clone A2 cells assessed as increase in IkappaBalpha phosphorylation measured after 1 hr by Western blot analysis; format: cell-based; conditions: filed as activator, dose 0-80 nM
[18] = tested on: Human immunodeficiency virus; assay: HIV-latency reversing activity in human NH2 cells at 10 nM pretreated with PKC inhibitor, Go6983 for 1 hr followed by compound addition and measured after 12 hrs by luciferase based assay; format: functional, organism-based
[19] = tested on: Human immunodeficiency virus; assay: Reactivation of latent HIV in human J-Lat Tat-GFP Clone A2 cells measured after 24 hrs by fluorescence based analysis; format: functional, organism-based; conditions: dose 0.5-40 nM
J-Lat Tat-GFP Clone A2 [20] = assay: Downregulation of ARID4B gene expression in human J-Lat Tat-GFP Clone A2 cells at 10 nM measured after 6 hrs by transcriptome analysis; format: functional, cell-based
J-Lat Tat-GFP Clone A2 [21] = assay: Upregulation of SACM1L gene expression in human J-Lat Tat-GFP Clone A2 cells at 10 nM measured after 6 hrs by transcriptome analysis; format: functional, cell-based
J-Lat Tat-GFP Clone A2 [22] = assay: Upregulation of FMNL1 gene expression in human J-Lat Tat-GFP Clone A2 cells at 10 nM measured after 6 hrs by transcriptome analysis; format: functional, cell-based
J-Lat Tat-GFP Clone A2 [23] = assay: Cytotoxicity against human J-Lat Tat-GFP Clone A2 cells at 1 uM incubated for 72 hrs; format: toxicity, cell-based; conditions: j-lat tat-gfp clone a2, 72 h
J-Lat Tat-GFP Clone A2 [24] = assay: Upregulation of CD69 gene expression in human J-Lat Tat-GFP Clone A2 cells at 10 nM measured after 6 hrs by transcriptome analysis; format: functional, cell-based
J-Lat Tat-GFP Clone A2 [25] = assay: Activation of NFkappaB signalling pathway in human J-Lat Tat-GFP Clone A2 cells assessed as induction of IkappaBalpha degradation measured after 1 hr by Western blot analysis; format: cell-based; conditions: filed as activator, dose 0-80 nM

C=C(C)[C@]12C[C@@H](C)[C@@]34O[C@]5(CCCCCCC[C@H](C)[C@H]6[C@H](C)C(=O)[C@@](O)([C@H](O)[C@@]7(CO)O[C@H]7[C@H]3[C@H]1O5)[C@@H]64)O2
active: Activity (NH2) Tde | Activity (J-Lat Tat-GFP Clone A2 [1]) | Activity (J-Lat Tat-GFP Clone A2 [2]) | Activity [3] Tde | Activity (J-Lat Tat-GFP Clone A2 [4]) | Activity [5] | Activity (J-Lat Tat-GFP Clone A2 [6]) | Activity (J-Lat Tat-GFP Clone A2 [8]) | Activity (J-Lat Tat-GFP Clone A2 [10]) | Activity [11] Tde | Activity [12] Tde | Activity (J-Lat Tat-GFP Clone A2 [13]) Tde | Activity (J-Lat Tat-GFP Clone A2 [14]) | Activity [15] | Activity (J-Lat Tat-GFP Clone A2 [16]) | Activity (J-Lat Tat-GFP Clone A2 [17]) Dose-Dependent Effect | Activity [19] Dose-Dependent Effect | Activity (J-Lat Tat-GFP Clone A2 [20]) | Activity (J-Lat Tat-GFP Clone A2 [21]) | Activity (J-Lat Tat-GFP Clone A2 [22]) | Activity (J-Lat Tat-GFP Clone A2 [24]) | Activity (J-Lat Tat-GFP Clone A2 [25]) Dose-Dependent Effect
inactive: Activity [18]
Non-Toxic: Activity [7] | Activity (J-Lat Tat-GFP Clone A2 [23])
2500: fold change (FC) [9]
